Results as given in ChEMBL document CHEMBL1811769, “Bioactive 11,20-epoxy-3,5(16)-diene briarane diterpenoids from the South China Sea gorgonian Dichotella gemmacea” (J Nat Prod, 2011).
pIC50: −log10 of the molar value. Calls of active or inactive are those of the source. No cut-off for these calls is given here.

Legend:
A549 = test: Growth inhibition of human A549 cells by MTT assay; type: functional, cell-based
MG-63 = test: Growth inhibition of human MG63 cells by MTT assay; type: functional, cell-based
Priestia megaterium = test: Antibacterial activity against Bacillus megaterium at 0.05 mg by agar diffusion method; type: functional; conditions: for zone of inhibition at 50 µg/disc: read-out: DIZ
Zymoseptoria tritici = test: Antifungal activity against Septoria tritici at 0.05 mg by agar diffusion method; type: functional; conditions: for zone of inhibition at 50 µg/disc: read-out: DIZ
Microbotryum violaceum = test: Antifungal activity against Microbotryum violaceum at 0.05 mg by agar diffusion method; type: functional; conditions: for zone of inhibition at 50 µg/disc: read-out: DIZ
Escherichia coli = test: Antibacterial activity against Escherichia coli at 0.05 mg by agar diffusion method; type: functional; conditions: for zone of inhibition at 50 µg/disc: read-out: DIZ

| pIC50 (A549) | Compound | pIC50 (MG-63) | diameter of the inhibition zone (DIZ) (Priestia megaterium) | diameter of the inhibition zone (DIZ) (Zymoseptoria tritici) | diameter of the inhibition zone (DIZ) (Microbotryum violaceum) | diameter of the inhibition zone (DIZ) (Escherichia coli) | zone of inhibition at 50 µg/disc (Priestia megaterium) [mm] | zone of inhibition at 50 µg/disc (Zymoseptoria tritici) [mm] | zone of inhibition at 50 µg/disc (Microbotryum violaceum) [mm] | zone of inhibition at 50 µg/disc (Escherichia coli) [mm] |
| --- | --- | --- | --- | --- | --- | --- | --- | --- | --- | --- |
| 5.55 | COc1cccc2c1C(=O)c1c(O)c3c(c(O)c1C2=O)C[C@@](O)(C(=O)CO)C[C@@H]3O[C@H]1C[C@H](N)[C@H](O)[C@H](C)O1 [DOXORUBICIN] | 5.55 | – | – | – | – | – | – | – | – |
| 4.33 | C=C1/C=C/[C@H](OC(C)=O)[C@@]2(C)[C@@H](OC(C)=O)C[C@@H](OC(C)=O)[C@]3(CO3)[C@@H]2[C@H](OC(C)=O)[C@]2(O)[C@@H](C)C(=O)O[C@H]2[C@H]1Cl [GEMMACOLIDE H] | 4.27 | inactive | inactive | inactive | inactive | – | – | – | – |
| > 5.85 | C=C1/C=C/[C@H](OC(C)=O)[C@@]2(C)[C@@H](OC(C)=O)[C@@H](OC(C)=O)[C@@H](OC(=O)CC(C)C)[C@]3(CO3)[C@@H]2[C@H](OC(C)=O)[C@]2(O)[C@@H](C)C(=O)O[C@H]2[C@H]1Cl [GEMMACOLIDE J] | 4.10 | – | – | – | – | 16 | – | – | – |
| – | CC(=O)N1CCN(c2ccc(OCC3COC(Cn4ccnc4)(c4ccc(Cl)cc4Cl)O3)cc2)CC1 (stereo not drawn) [KETOCONAZOLE] | – | – | – | – | – | 18 | 25 | 30 | 18 |
| 5.08 | C=C1/C=C/[C@H](OC(C)=O)[C@@]2(C)[C@@H](OC(C)=O)[C@@H](OC(C)=O)[C@@H](OC(C)=O)[C@]3(CO3)[C@@H]2[C@H](OC(C)=O)[C@]2(O)[C@@H](C)C(=O)O[C@H]2[C@H]1Cl [GEMMACOLIDE G] | 4.42 | inactive | inactive | inactive | inactive | – | – | – | – |
| – | C=C1/C=C/[C@H](OC(C)=O)[C@@]2(C)[C@@H](OC(C)=O)[C@@H](OC(=O)CC(C)C)[C@@H](OC(C)=O)[C@]3(CO3)[C@@H]2[C@H](OC(C)=O)[C@]2(O)[C@@H](C)C(=O)O[C@H]2[C@H]1Cl | – | inactive | inactive | inactive | inactive | – | – | – | – |
| – | CN[C@@H]1[C@H](O[C@H]2[C@H](O[C@H]3[C@H](O)[C@@H](O)[C@H](N=C(N)N)[C@@H](O)[C@@H]3N=C(N)N)O[C@@H](C)[C@]2(O)C=O)O[C@@H](CO)[C@H](O)[C@H]1O [STREPTOMYCIN] | – | – | – | – | – | 11 | 11 | 16 | 18 |
| 4.69 | C=C1/C=C/[C@H](OC(C)=O)[C@@]2(C)[C@@H](OC(C)=O)C[C@@H](OC(=O)CC(C)C)[C@]3(CO3)[C@@H]2[C@H](OC(C)=O)[C@]2(O)[C@@H](C)C(=O)O[C@H]2[C@H]1Cl [GEMMACOLIDE I] | 4.60 | inactive | inactive | inactive | inactive | – | – | – | – |
| – | C=C1/C=C/[C@H](OC(C)=O)[C@@]2(C)[C@@H](OC(C)=O)CC[C@]3(CO3)[C@@H]2[C@H](OC(C)=O)[C@]2(O)[C@@H](C)C(=O)O[C@H]2[C@H]1Cl | – | inactive | inactive | inactive | inactive | – | – | – | – |
| – | CC1(C)S[C@@H]2[C@H](NC(=O)Cc3ccccc3)C(=O)N2[C@H]1C(=O)O [PENICILLIN G] | – | – | – | – | – | 26 | 12 | 14 | 8 |
